Legend:
Format in all cases: in vivo
[1] = test system: Ctenocephalides felis; assay: Ctenocephalides felis in-vitro contact test, adult cat flea (CTECFE Cont); settings: application rate 5 μg/cm^2 (=500 g/ha), adult cat fleas, after 48 hours, read-out: activity (efficacy: 100% means all fleas are dead or moribund)
Summary of the method: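 Efficacy, as percent of fleas dead or moribund, was scored 48 h after adults (5-10 per tube) were placed in glass tubes whose walls carried dried compound at 5 μg/cm^2 (900 ppm solution). Moribund meant failing to climb away from a 45-50° C. hot plate within 5 min.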

[2] = test system: Spodoptera frugiperda; assay: Spodoptera frugiperda spray test; settings: in Zea mays, 168 h, read-out: activity (mortality)
Summary of the method: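 Percent kill of fall armyworm caterpillars was assessed 7 days after infesting dried, treated maize leaf sections. Treatment was a spray of compound in acetone/dimethylformamide, diluted with water containing emulsifier at 1000 ppm.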

[3] = test system: Rhipicephalus microplus; assay: Rhipicephalus (Boophilus) microplus injection test (BOOPMI Inj); settings: 168 h, injection into adult engorged female ticks, egg deposition after 7 days, read-out: activity (efficacy: 100% means all eggs are infertile); for pest or weed control at 0.004 mg: application rate 4 μg/tick; for pest or weed control at 0.02 mg: application rate 20 μg/tick
Summary of the method: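 Compound in DMSO, 1 μL, injected abdominally into five adult engorged females, which were then held in a climate chamber. Read-out is egg fertility, scored from deposition at 7 days, with unclear eggs followed to hatching (~42 days); 0% means all eggs fertile, 100% all infertile.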

[4] = test system: Aedes aegypti strain MONHEIM; assay: Aedes aegypti test (AEDSAE surface treatment & contact assay); settings: exposure 30 minutes, 24 hours after contact, read-out: efficacy (mortality); for mortality at 4 mg/m2: surface concentration 4 mg/m^2, glazed tile; for mortality at 20 mg/m2: surface concentration 20 mg/m^2, glazed tile
Summary of the method: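 Compound dissolved in acetone (2 mg/ml) with 2000 ppm rapeseed oil methyl ester, pipetted onto glazed tile and dried. Adult mosquitoes exposed on the surface for 30 min; percent mortality scored 24 h after contact.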

[5] = test system: Rhipicephalus microplus; assay: Rhipicephalus (Boophilus) microplus in-vitro contact test, larval cattle tick, strain Parkhurst (BOOPMI Cont); settings: application rate 5 μg/cm^2 (=500 g/ha), tick larvae, after 48 hours, read-out: activity (efficacy: 100% means all larvae are dead or moribund)
Summary of the method: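 After 48 h at 27° C. and 85% humidity, percent dead or moribund larvae was scored from negative geotactic behaviour. Larvae (20-50, Parkhurst strain, synthetic pyrethroid-resistant) were exposed in tubes coated with compound from acetone, 900 ppm corresponding to 5 μg/cm^2.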

[6] = test system: Diabrotica balteata; assay: Diabrotica balteata spray test; settings: 168 h, wheat seeds, larvae, after 7 days, read-out: activity (efficacy: 100% means all seedlings have grown up like in the untreated, uninfected control); for pest or weed control at 32 µg/disc, 100 g/ha: application rate 100 g/ha (=32 μg/well); for pest or weed control at 160 µg/disc, 500 g/ha: application rate 500 g/ha (=160 μg/well)
Summary of the method: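 Efficacy (%) was scored 7 days after spraying, with 100% meaning growth like the untreated, uninfected control and 0% meaning no seedling grew. Spray solutions of compound in acetone/DMF with emulsifier-containing water went onto 1-day-germinated wheat seeds, and each unit was then infested with 10-20 banded cucumber beetle larvae.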

| Compound | pest or weed control at 5 µg/cm2 [1] | mortality at 100 g/ha [2] | pest or weed control at 0.004 mg [3] | pest or weed control at 0.02 mg [3] | mortality at 4 mg/m2 [4] | mortality at 20 mg/m2 [4] | pest or weed control at 5 µg/cm2 [5] | pest or weed control at 32 µg/disc, 100 g/ha [6] | mortality at 500 g/ha [2] | pest or weed control at 160 µg/disc, 500 g/ha [6] |
| --- | --- | --- | --- | --- | --- | --- | --- | --- | --- | --- |
| Cc1nc([C@H](C)NC(=O)c2cc(Cl)cc(C#N)c2)n(-c2ccc(C#N)cn2)n1 [II-61] | 100% | 100% | 100% | 100% | 80 to 100% | 80 to 100% | 100% | 100% | – | – |
| C[C@H](NC(=O)c1cc(Br)cc(C(F)F)c1)c1ncnn1-c1ccc(C#N)cn1 [II-83] | 100% | 100% | 100% | – | 80 to 100% | 80 to 100% | 90% | 100% | – | – |
| CC(C)c1nc([C@H](C)NC(=O)c2cncc(C(F)(F)F)c2)n(-c2ccc(C#N)cn2)n1 [I-30] | 80% | 100% | 100% | 100% | 80 to 100% | 80 to 100% | 100% | 100% | – | – |
| CCc1nc([C@H](C)NC(=O)c2cc(Cl)cc(Cl)c2)n(-c2ccc(C#N)cn2)n1 [I-2] | 100% | 100% | 100% | 100% | – | – | 100% | 100% | 100% | 100% |
| Cc1nc([C@H](C)NC(=O)c2cc(Br)cc(OC(F)(F)F)c2)n(-c2ccc(C#N)cn2)n1 [II-47] | 100% | 100% | 100% | 100% | 80 to 100% | 80 to 100% | 100% | 100% | – | – |
| C[C@H](NC(=O)c1cc(Cl)cc(C(F)(F)F)c1)c1ncnn1-c1ccc(N(C)C(=O)C2CC2)cn1 [II-79] | 100% | 100% | 100% | – | 80 to 100% | 80 to 100% | 100% | 100% | – | – |
| Cc1nc([C@H](C)NC(=O)c2cc(OC(F)(F)F)cc(C(F)F)c2)n(-c2ccc(C#N)cn2)n1 [II-117] | 100% | 100% | 100% | – | 80 to 100% | 80 to 100% | 100% | 100% | – | – |
| C[C@H](NC(=O)c1cc(OC(F)F)cc(C(F)F)c1)c1ncnn1-c1ccc(C#N)cn1 [II-116] | 100% | 100% | 100% | – | 80 to 100% | 80 to 100% | 100% | 100% | – | – |
| C[C@H](NC(=O)c1cc(OC(F)F)cc(OC(F)F)c1)c1ncnn1-c1ccc(C#N)cn1 [II-77] | 100% | 100% | 80% | – | 80 to 100% | 80 to 100% | 90% | 100% | – | – |
| Cc1nc([C@H](C)NC(=O)c2cc(C(F)(F)F)cc(C(F)(F)F)c2)n(-c2ccc(C(=O)N(C)CC#N)cn2)n1 [II-99] | 100% | – | 100% | – | – | 80 to 100% | 100% | 100% | – | – |
| Cc1nc([C@H](C)NC(=O)c2cc(C#N)cc(C(F)(F)F)c2)n(-c2ccc(C#N)cn2)n1 [II-53] | 100% | 100% | 100% | 100% | 80 to 100% | 80 to 100% | 100% | 100% | – | – |
| Cc1nc([C@H](C)NC(=O)c2cc(Cl)cc(C(F)F)c2)n(-c2ccc(C#N)cn2)n1 [II-65] | 100% | 100% | 100% | 100% | 80 to 100% | 80 to 100% | 100% | 80% | – | – |
| C[C@H](NC(=O)c1cc(C(F)(F)F)cc(C(F)(F)F)c1)c1ncnn1-c1ccc(C(=O)N(C)CC2CC2)cn1 [II-73] | 100% | 100% | 100% | 100% | – | – | 100% | 100% | 100% | 100% |
| Cc1nc([C@H](C)NC(=O)c2cc(Br)cc(C#N)c2)n(-c2ccc(C#N)cn2)n1 [II-54] | 100% | 100% | 100% | 100% | 80 to 100% | 80 to 100% | 100% | 100% | – | – |
| CCc1nc([C@H](C)NC(=O)c2cc(C(F)(F)F)cc(C(F)(F)F)c2)n(-c2ccc(C#N)cn2)n1 [I-1] | 90% | 100% | 100% | 100% | 80 to 100% | 80 to 100% | 100% | 100% | 100% | 100% |
| C[C@H](NC(=O)c1cc(OC(F)(F)F)cc(C(F)F)c1)c1ncnn1-c1ccc(C#N)cn1 [II-111] | 100% | 100% | 100% | – | 80 to 100% | – | 100% | 100% | – | – |
| Cc1nc([C@H](C)NC(=O)c2cc(C(F)(F)F)cc(C(F)(F)F)c2)n(-c2ccc(C(=O)N(C)C3CC3)cn2)n1 [II-96] | 100% | 100% | 100% | – | 80 to 100% | 80 to 100% | 100% | 100% | – | – |

Source: patent publication US20220274947A1, “NOVEL HETEROARYL-TRIAZOLE COMPOUNDS AS PESTICIDES” (Bayer Aktiengesellschaft, priority 2019, published 2022)
